These results are taken from ChEMBL document CHEMBL5291721, “A preclinical secondary pharmacology resource illuminates target-adverse drug reaction associations of marketed drugs” (Nat Commun, 2023).

Experiment [1] deals with Rod cGMP-specific 3',5'-cyclic phosphodiesterase subunit alpha (Homo sapiens, UniProt P16499). It counts as functional.
Experiment [2] concerns the target T1, Prostaglandin G/H synthase 1 (Rattus norvegicus, UniProt Q63921).
T1 sequence (Q63921 whole entry): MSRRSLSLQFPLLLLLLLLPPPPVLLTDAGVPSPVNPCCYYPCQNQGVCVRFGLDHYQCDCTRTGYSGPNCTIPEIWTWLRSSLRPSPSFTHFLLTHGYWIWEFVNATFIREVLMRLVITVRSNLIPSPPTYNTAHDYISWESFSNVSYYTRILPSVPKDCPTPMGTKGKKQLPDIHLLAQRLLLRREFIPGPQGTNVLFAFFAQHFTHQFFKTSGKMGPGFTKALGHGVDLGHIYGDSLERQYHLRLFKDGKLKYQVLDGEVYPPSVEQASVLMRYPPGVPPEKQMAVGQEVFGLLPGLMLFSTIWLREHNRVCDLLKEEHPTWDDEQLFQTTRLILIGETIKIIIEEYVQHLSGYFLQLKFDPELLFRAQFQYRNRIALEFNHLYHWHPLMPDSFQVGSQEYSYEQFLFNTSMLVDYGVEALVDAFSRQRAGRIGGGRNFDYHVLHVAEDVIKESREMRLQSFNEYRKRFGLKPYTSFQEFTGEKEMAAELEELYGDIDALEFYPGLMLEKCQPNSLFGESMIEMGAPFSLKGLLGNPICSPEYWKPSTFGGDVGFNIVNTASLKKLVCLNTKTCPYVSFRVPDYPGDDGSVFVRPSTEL
It counts as functional.

A further experiment has as its target T2, Thromboxane A2 receptor (Homo sapiens, UniProt P21731).
T2 sequence (P21731 whole entry): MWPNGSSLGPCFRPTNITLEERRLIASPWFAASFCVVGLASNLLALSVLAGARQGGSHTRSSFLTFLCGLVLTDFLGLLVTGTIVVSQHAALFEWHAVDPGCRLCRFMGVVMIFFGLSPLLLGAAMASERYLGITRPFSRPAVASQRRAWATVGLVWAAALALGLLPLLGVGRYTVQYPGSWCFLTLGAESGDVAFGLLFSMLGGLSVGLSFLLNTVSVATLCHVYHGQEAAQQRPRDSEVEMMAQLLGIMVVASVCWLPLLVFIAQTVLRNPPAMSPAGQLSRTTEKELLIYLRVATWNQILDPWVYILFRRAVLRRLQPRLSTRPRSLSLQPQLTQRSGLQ
It counts as functional, cell-based.

The target in experiment [3] is T3, Alpha-2A adrenergic receptor (Homo sapiens, UniProt P08913).
T3 sequence (P08913 whole entry): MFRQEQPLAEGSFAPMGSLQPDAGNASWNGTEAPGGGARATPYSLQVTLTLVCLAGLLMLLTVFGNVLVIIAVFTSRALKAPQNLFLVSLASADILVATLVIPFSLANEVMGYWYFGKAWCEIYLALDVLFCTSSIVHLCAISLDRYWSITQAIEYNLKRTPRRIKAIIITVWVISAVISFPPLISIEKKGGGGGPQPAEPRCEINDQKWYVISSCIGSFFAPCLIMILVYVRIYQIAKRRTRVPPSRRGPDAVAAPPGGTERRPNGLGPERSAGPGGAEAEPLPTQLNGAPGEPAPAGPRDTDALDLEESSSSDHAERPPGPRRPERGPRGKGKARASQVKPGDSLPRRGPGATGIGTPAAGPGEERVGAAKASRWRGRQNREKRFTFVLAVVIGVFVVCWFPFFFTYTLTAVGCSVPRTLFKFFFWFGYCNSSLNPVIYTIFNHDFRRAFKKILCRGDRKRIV

Experiment [4] addresses T4, Oxysterols receptor LXR-beta (Homo sapiens, UniProt P55055).
T4 sequence (P55055 whole entry): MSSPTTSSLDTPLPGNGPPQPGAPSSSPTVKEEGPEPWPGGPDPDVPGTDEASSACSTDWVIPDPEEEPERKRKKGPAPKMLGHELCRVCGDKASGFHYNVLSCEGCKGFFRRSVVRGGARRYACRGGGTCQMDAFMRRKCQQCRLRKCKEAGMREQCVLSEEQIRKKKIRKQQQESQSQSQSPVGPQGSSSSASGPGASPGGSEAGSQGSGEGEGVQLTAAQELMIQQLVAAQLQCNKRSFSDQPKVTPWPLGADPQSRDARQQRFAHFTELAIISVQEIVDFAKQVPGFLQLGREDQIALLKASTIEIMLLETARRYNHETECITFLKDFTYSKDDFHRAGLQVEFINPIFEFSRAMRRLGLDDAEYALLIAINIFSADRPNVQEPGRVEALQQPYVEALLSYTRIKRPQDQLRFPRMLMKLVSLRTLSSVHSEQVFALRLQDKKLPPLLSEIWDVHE
The format is functional.

Experiment [5] deals with T5, Retinoic acid receptor gamma (Homo sapiens, UniProt P13631).
T5 sequence (P13631 whole entry): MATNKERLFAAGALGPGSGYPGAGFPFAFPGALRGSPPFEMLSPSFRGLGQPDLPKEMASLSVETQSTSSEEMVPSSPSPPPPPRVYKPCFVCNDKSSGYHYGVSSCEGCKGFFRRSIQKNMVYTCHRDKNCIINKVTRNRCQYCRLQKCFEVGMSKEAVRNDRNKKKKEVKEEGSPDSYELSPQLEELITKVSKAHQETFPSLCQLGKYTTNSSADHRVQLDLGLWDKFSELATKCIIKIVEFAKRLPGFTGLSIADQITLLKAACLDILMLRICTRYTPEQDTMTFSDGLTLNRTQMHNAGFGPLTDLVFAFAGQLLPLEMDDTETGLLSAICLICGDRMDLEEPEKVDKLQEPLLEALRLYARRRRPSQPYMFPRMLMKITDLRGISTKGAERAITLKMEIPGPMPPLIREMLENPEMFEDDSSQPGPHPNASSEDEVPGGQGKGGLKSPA
The format is functional, cell-based.

The target in experiment [6] is T6, Peroxisome proliferator-activated receptor alpha (Homo sapiens, UniProt Q07869).
T6 sequence (Q07869 whole entry): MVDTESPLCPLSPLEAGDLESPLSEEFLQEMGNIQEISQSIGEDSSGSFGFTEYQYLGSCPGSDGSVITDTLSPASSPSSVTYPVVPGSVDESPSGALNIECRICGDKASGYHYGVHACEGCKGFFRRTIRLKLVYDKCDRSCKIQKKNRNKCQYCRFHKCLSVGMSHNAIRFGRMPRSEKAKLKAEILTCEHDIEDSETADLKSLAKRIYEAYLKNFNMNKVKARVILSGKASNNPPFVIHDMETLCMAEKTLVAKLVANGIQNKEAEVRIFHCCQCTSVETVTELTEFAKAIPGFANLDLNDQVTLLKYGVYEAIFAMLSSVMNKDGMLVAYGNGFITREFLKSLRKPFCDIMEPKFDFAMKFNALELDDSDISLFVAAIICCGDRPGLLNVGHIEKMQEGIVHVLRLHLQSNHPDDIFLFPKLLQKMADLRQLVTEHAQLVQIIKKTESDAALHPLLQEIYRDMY
It counts as functional.

Experiment [7] concerns the target Vascular endothelial growth factor receptor 2 (Homo sapiens, UniProt P35968). The format is functional.

Each structure is given as a SMILES string.
Note: assay procedure not described here.

Sequence of Vascular endothelial growth factor receptor 2 (P35968 whole entry): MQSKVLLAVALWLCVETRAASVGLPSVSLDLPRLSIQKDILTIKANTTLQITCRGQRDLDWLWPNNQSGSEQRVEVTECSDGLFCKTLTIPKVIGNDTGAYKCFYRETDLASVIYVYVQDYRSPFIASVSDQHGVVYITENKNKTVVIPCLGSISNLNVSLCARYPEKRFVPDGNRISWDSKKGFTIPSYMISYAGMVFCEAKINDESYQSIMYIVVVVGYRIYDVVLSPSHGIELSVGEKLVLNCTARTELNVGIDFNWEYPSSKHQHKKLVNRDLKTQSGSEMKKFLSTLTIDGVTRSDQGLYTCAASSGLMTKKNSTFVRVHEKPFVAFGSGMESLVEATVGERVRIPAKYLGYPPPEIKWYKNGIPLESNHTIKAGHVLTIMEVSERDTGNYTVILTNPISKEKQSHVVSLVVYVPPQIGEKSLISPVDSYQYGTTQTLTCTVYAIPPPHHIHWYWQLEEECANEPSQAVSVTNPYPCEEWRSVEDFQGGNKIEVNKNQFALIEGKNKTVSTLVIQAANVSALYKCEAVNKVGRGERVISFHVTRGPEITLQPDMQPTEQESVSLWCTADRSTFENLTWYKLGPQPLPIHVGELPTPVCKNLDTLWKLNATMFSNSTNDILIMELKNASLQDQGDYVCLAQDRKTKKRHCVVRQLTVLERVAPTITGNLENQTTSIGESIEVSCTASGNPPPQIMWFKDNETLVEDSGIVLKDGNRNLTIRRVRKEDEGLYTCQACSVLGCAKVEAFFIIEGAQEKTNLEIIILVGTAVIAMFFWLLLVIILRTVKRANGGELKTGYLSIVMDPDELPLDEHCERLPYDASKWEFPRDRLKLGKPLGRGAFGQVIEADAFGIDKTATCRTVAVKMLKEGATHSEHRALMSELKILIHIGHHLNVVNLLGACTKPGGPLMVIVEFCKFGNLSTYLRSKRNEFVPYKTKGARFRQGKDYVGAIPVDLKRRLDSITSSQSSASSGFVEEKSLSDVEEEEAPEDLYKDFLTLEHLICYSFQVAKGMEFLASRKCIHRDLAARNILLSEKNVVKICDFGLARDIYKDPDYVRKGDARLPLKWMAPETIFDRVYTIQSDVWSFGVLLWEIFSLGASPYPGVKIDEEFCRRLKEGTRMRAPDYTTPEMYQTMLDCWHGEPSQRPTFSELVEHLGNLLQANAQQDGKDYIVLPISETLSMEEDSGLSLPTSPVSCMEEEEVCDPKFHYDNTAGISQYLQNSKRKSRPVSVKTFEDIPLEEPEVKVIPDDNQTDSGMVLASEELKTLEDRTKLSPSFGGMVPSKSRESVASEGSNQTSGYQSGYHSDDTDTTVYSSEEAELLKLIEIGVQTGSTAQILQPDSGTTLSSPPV
Sequence of Rod cGMP-specific 3',5'-cyclic phosphodiesterase subunit alpha (P16499 whole entry): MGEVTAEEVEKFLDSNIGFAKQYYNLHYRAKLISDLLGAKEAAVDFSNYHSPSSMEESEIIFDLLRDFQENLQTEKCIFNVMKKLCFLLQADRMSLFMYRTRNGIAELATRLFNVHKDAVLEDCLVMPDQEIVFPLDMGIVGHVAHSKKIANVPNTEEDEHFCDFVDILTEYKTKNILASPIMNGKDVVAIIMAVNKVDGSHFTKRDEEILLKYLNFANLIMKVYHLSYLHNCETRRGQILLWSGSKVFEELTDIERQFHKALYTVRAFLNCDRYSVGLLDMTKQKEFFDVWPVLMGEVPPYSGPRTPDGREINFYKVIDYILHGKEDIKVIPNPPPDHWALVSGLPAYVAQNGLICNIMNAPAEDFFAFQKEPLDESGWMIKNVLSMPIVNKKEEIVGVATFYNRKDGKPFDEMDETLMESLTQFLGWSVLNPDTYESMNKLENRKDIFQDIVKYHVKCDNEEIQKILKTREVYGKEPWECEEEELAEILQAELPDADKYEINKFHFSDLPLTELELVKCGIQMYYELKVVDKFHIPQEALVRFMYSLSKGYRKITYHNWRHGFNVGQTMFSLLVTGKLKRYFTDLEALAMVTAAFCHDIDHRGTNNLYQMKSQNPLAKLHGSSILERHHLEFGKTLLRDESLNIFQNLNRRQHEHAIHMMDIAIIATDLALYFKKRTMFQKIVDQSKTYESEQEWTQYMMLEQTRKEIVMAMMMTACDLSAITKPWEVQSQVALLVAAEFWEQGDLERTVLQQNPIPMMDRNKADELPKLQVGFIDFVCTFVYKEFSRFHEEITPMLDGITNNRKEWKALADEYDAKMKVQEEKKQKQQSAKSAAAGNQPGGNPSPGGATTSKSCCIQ

A word on the AC50: it is the concentration giving half of the maximal activity seen. As to `Cc1onc(-c2ccccc2)c1-c1ccc(S(N)(=O)=O)cc1` [VALDECOXIB], the values for the AC50 in experiment [1] and in experiment [2] were over 10 µM and over 30 µM, respectively.
In the case of `COc1cc2nccc(Oc3ccc(NC(=O)C4(C(=O)Nc5ccc(F)cc5)CC4)cc3)c2cc1OC` [CABOZANTINIB], the results for the concentration at half-maximal activity (AC50) (at Thromboxane A2 receptor; in experiment [3]) were 5.52 µM and over 30 µM, respectively.
In turn, `N[C@@H](CC(=O)N1CCn2c(nnc2C(F)(F)F)C1)Cc1cc(F)c(F)cc1F` [SITAGLIPTIN] yielded a half-maximal activity concentration (AC50) in experiment [1] of over 10 µM.
Consider `COc1ccc(CC2c3cc(OC)c(OC)cc3CC[N+]2(C)CCC(=O)OCCCCCOC(=O)CC[N+]2(C)CCc3cc(OC)c(OC)cc3C2Cc2ccc(OC)c(OC)c2)cc1OC` (centres undefined), for which the activity in experiment [2] was half-maximal at 18.9 µM (AC50).
Take `CCN(CC)CCNC(=O)c1c(C)[nH]c(/C=C2\C(=O)Nc3ccc(F)cc32)c1C` [SUNITINIB]: the values for the AC50 in experiment [4] and in experiment [5] were over 30 µM and over 10 µM, respectively.
Turning to `COc1ccccc1Oc1c(NS(=O)(=O)c2ccc(C(C)(C)C)cc2)nc(-c2ncccn2)nc1OCCO` [BOSENTAN], the half-maximal activity concentration (AC50) in experiment [6] was over 30 µM.
With `CC(C(=O)O)c1ccc2c(c1)[nH]c1ccc(Cl)cc12` (centres undefined) [CARPROFEN], the half-maximal activity concentration (AC50) in experiment [4] and in experiment [5] was over 30 µM each time.
Turning to `CC(C)N(CCC(C(N)=O)(c1ccccc1)c1ccccn1)C(C)C` (centres undefined) [DISOPYRAMIDE], half-maximal activity in experiment [2] (AC50) was put at 29.7 µM.
With `CCN1CCN(Cc2ccc(Nc3ncc(F)c(-c4cc(F)c5nc(C)n(C(C)C)c5c4)n3)nc2)CC1` [ABEMACICLIB], in experiment [7], the activity was half-maximal at 14 µM (AC50).
As for `CC(C)Cc1ccc(C(C)C(=O)O)cc1` (centres undefined) [IBUPROFEN], the half-maximal activity concentration (AC50) in experiment [6] was over 30 µM.
Turning to `COc1ccccc1OCCNCC(O)COc1cccc2[nH]c3ccccc3c12` (centres undefined) [CARVEDILOL], the concentration at half-maximal activity (AC50) in experiment [2] is over 30 µM.
Compound `C[C@H](CCC(=O)O)[C@H]1CC[C@H]2[C@@H]3[C@@H](O)C[C@@H]4C[C@H](O)CC[C@]4(C)[C@H]3CC[C@]12C` [URSODIOL] registered a concentration at half-maximal activity (AC50) in experiment [7] of over 10 µM.
As to `C=CC[C@@H]1/C=C(\C)C[C@H](C)C[C@H](OC)[C@H]2O[C@@](O)(C(=O)C(=O)N3CCCC[C@H]3C(=O)O[C@H](/C(C)=C/[C@@H]3CC[C@@H](O)[C@H](OC)C3)[C@H](C)[C@@H](O)CC1=O)[C@H](C)C[C@@H]2OC` [TACROLIMUS ANHYDROUS], the concentration at half-maximal activity (AC50) in experiment [7] was over 30 µM; on Thromboxane A2 receptor, 10 µM.
`COc1cc2nc(N3CCN(C(=O)C4CCCO4)CC3)nc(N)c2cc1OC` (centres undefined) [TERAZOSIN] displayed an AC50 in experiment [3] of 29 µM.
